Experimental findings from ChEMBL document CHEMBL2177046, “New aminoimidazoles as β-secretase (BACE-1) inhibitors showing amyloid-β (Aβ) lowering in brain” (J Med Chem, 2012) are described below.

Data set [1] in a line: Dissociation constant, pKa of the compound by pressure-assisted capillary electrophoretic method. In kind it is physicochemical.
The nature of a further data set: in vitro. Particulars: human, Caco-2.
A short description of data set [2]: Ratio of free drug concentration in brain to free drug concentration in plasma in C57BL/6 mouse at 30 umol/kg, iv at […]. It is filed as ADME, organism-based. The conditions noted are these: brain and plasma, read-out: K(p,uu,brain).
The test system of data set [3] is Plasma. The data set is described as follows: Free plasma concentration in C57BL/6 mouse at 30 umol/kg, iv at […]. In kind it is ADME, organism-based. Particulars: in vivo.
The nature of data set [4]: Drug uptake in C57BL/6 mouse brain at 30 umol/kg, iv at […]. The conditions noted are these: read-out: Drug uptake. It is filed as ADME, organism-based.
Data set [5] in a line: Plasma concentration in C57BL/6 mouse at 30 umol/kg, iv at […]. In kind it is ADME, organism-based.
In data set [6] the test system is Brain. The data set is described as follows: Free drug concentration in C57BL/6 mouse brain at 30 umol/kg, iv at […]. It is filed as ADME, organism-based. Particulars: in vivo.
Data set [7] is described as follows: Plasma concentration in C57BL/6 mouse at 100 umol/kg, po at […]. In kind it is ADME, organism-based.
Data set [8] has as its system Brain. Nature of the data set: Free drug concentration in C57BL/6 mouse brain at 100 umol/kg, po at […]. It is filed as ADME, organism-based. Particulars: in vivo.
Data set [9] in a line: Ratio of free drug concentration in brain to free drug concentration in plasma in guinea pig. It is filed as ADME, Cavia porcellus. The conditions noted are these: brain and plasma, read-out: K(p,uu,brain).
A short description of data set [10]: Drug uptake in C57BL/6 mouse brain at 100 umol/kg, po at […]. Particulars: read-out: Drug uptake. In kind it is ADME, organism-based.
Data set [11] deals with Plasma. The data set is described as follows: Free plasma concentration in C57BL/6 mouse at 100 umol/kg, po at […]. It is filed as ADME, organism-based. Particulars: in vivo.
The nature of data set [12]: Ratio of free drug concentration in brain to free drug concentration in plasma in C57BL/6 mouse at 100 umol/kg, po at […]. It is filed as ADME, organism-based. Particulars: brain and plasma, read-out: K(p,uu,brain).
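Wherever logD is given: lipophilicity determined by reversed-phase HPLC.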

The pKa is the negative logarithm of the acid dissociation constant. Low readings indicate a group that gives up its proton readily, high ones a group that holds its proton tightly. The logD is lipophilicity at a set pH, counting ionised and neutral species. A higher logD goes with a more lipophilic compound. A word on the Papp A→B: it is the apparent permeability from the apical to the basolateral side of a cell layer. The compound `CC#Cc1cncc(-c2cc(C3(C4CC4)N=C(C)C(N)=N3)ccc2O)c1` (configuration not stated) yielded a pKa in data set [1] of 5.9. For the same compound, the pH-dependent lipophilicity (logD) in “physchem” was found to be 1.2. In the data set “in vitro”, the Papp A→B at 10 µM was 2 ×10⁻⁶ cm/s.

Regarding `CC#Cc1ccnc(-c2cc(C3(C4CC4)N=C(C)C(N)=N3)ccc2O)c1` (configuration not stated), the logD in the data set “physchem” is 2.9. This compound came in with an apical-to-basolateral permeability (Papp A→B) at 10 µM in “in vitro” of 19 ×10⁻⁶ cm/s.

In data set [1], `CC1(c2cccc(-c3cccnc3)c2)N=C(N)C(c2ccccc2)=N1` (configuration not stated) had a pKa of 5.4. In “physchem”, this compound came in with a logD of 2.1. The same compound showed a Papp A→B at 10 µM in “in vitro” of 46 ×10⁻⁶ cm/s.

Take `CC(C)C1=NC(C)(c2cccc(-c3cccnc3)c2)N=C1N` (configuration not stated): the pKa in [1] was 5.9. Besides, the logD in the data set “physchem” is 1.1. In the data set “in vitro”, this compound displayed an apical-to-basolateral permeability (Papp A→B) at 10 µM of 38 ×10⁻⁶ cm/s.

Turning to `COc1cccc(-c2cccc(C3(C)N=C(C)C(N)=N3)c2)c1` (configuration not stated), the pKa in data set [1] worked out at 6.5. In “physchem”, this compound registered a log distribution coefficient (logD) of 2.2. In the data set “in vitro”, this compound displayed a Papp A→B at 10 µM of 34 ×10⁻⁶ cm/s.

`CC1=NC(C)(c2cccc(-c3cccnc3)c2)N=C1N` (configuration not stated) returned a pKa in data set [1] of 6.7. Moreover, the logD in “physchem” came to 0.2. In “in vitro”, this compound had a Papp A→B at 10 µM of 30 ×10⁻⁶ cm/s.

As for `CC(C)C1=NC(c2ccccc2)(c2cccc(-c3cncnc3)c2)N=C1N` (configuration not stated), the pKa in data set [1] came out at 5.2. In addition, in “physchem”, the logD was found to be 2.4. For the same compound, the Papp A→B at 10 µM in “in vitro” came out at 30 ×10⁻⁶ cm/s.

In [1], `COc1ccc(C2(c3cccc(-c4cncnc4)c3)N=C(N)C(C(C)C)=N2)cc1` (configuration not stated) showed a pKa of 5.3. Further, the logD in the data set “physchem” was determined as 2.4. Further, the Papp A→B at 10 µM in the data set “in vitro” was 30 ×10⁻⁶ cm/s.

The compound `CC1=NC(c2ccccc2)(c2cccc(-c3cccnc3)c2)N=C1N` (configuration not stated) displayed a logD in the data set “physchem” of 1.8.

Regarding `COc1cccc(-c2cccc(C3(c4ccncc4)N=C(C)C(N)=N3)c2)c1` (configuration not stated), the Papp A→B at 10 µM in “in vitro” came out at 40 ×10⁻⁶ cm/s.

In data set [1], `CC1=NC(c2ccc(F)cc2)(c2cccc(-c3cccnc3)c2)N=C1N` (configuration not stated) yielded a pKa of 4.9. In addition, the logD in the data set “physchem” came out at 2. Moreover, in the data set “in vitro”, the Papp A→B at 10 µM amounted to 41 ×10⁻⁶ cm/s.

As to `COc1ccc(C2(c3cccc(-c4cncnc4)c3)N=C(C)C(N)=N2)cc1` (configuration not stated), the pKa in data set [1] came out at 5.2. Further, the logD in the data set “physchem” came to 1.1. For the same compound, the Papp A→B at 10 µM in the data set “in vitro” was determined as 21 ×10⁻⁶ cm/s.

In [1], `COc1ccc(C2(c3cccc(-c4cccnc4)c3)N=C(C)C(N)=N2)cc1` (configuration not stated) yielded a pKa of 5.7. The Kp uu at […] in data set [2] turned out to be 0.08. For the same compound, the “Cp(f)” value in the data set on Plasma [3] came to 720 nM. Moreover, the concentration at […] in data set [4] came to 710 nM; in [5] it was 11500 nM. In “physchem”, this compound came in with a logD of 1.7. For the same compound, the “Drug uptake(free)” value with Brain [6] worked out at 54 nmol/L. The Papp A→B at 10 µM in “in vitro” came out at 28 ×10⁻⁶ cm/s.

As for `COc1ccc(C2(c3cccc(-c4cncnc4)c3)N=C(C)C(N)=N2)cc1C` (configuration not stated), in “physchem”, the logD was 1.7. This compound also showed a Papp A→B at 10 µM in “in vitro” of 19 ×10⁻⁶ cm/s.

`COc1c(C)cc(C2(c3cccc(-c4cncnc4)c3)N=C(C)C(N)=N2)cc1C` (configuration not stated) yielded a pKa in data set [1] of 5.3. In the data set “physchem”, the logD was determined as 1.9. This compound also showed a Papp A→B at 10 µM in “in vitro” of 28 ×10⁻⁶ cm/s.

In the data set “physchem”, `COc1c(C)cc([C@]2(c3cccc(-c4cncnc4)c3)N=C(C)C(N)=N2)cc1C` registered a logD of 1.8. The Papp A→B at 10 µM in the data set “in vitro” came to 21 ×10⁻⁶ cm/s.

Consider `COc1c(C)cc([C@@]2(c3cccc(-c4cncnc4)c3)N=C(C)C(N)=N2)cc1C`, for which the results for the concentration at […] in [7] and in data set [10] were 4500 nM and 230 nM, respectively. In [1], this compound returned a pKa of 5.2. Besides, in the data set with Brain [8], the “Drug uptake(free)” value is 19 nmol/L. The Kp uu in data set [9] amounted to 0.16. In “physchem”, this compound showed a logD of 1.8. Further, the “Cp(f)” value in the data set on Plasma [11] was found to be 490 nM. Besides, the Kp uu at […] in data set [12] came out at 0.05. The same compound showed a Papp A→B at 10 µM in the data set “in vitro” of 22 ×10⁻⁶ cm/s.

In turn, `CC#Cc1cncc(-c2cccc(C3(c4cc(C)c(OC)c(C)c4)N=C(C)C(N)=N3)c2)c1` (configuration not stated) came in with a logD in “physchem” of 3.7. The Papp A→B at 10 µM in the data set “in vitro” turned out to be 12 ×10⁻⁶ cm/s.

On to `CC1=N[C@@](Cc2ccccc2)(c2cccc(-c3cncnc3)c2)N=C1N`, for which the pKa in data set [1] came to 6. For the same compound, in “physchem”, the logD is 1.2. Also, the Papp A→B at 10 µM in “in vitro” worked out at 31 ×10⁻⁶ cm/s.

Consider `CC1=NC(c2cccc(-c3cncc(Cl)c3)c2)(C2CC2)N=C1N` (configuration not stated), for which the Kp uu at […] in [2] was 0.16. In addition, in the data set on Plasma [3], the “Cp(f)” value was found to be 60 nM. Also, the concentration at […] in data set [4] was found to be 180 nM; in data set [5] it was 1200 nM. In addition, the logD in the data set “physchem” is 2. The “Drug uptake(free)” value with Brain [6] turned out to be 9 nmol/L. Also, the Papp A→B at 10 µM in the data set “in vitro” was 57 ×10⁻⁶ cm/s.

`CC1=NC(c2cccc(-c3cccnc3)c2)(C2CCCCC2)N=C1N` (configuration not stated) showed a pKa in [1] of 6.2. Also, the logD in the data set “physchem” amounted to 2.6. The Papp A→B at 10 µM in “in vitro” is 41 ×10⁻⁶ cm/s.

Compound `COc1cccc(-c2cccc(C3(C4CCOCC4)N=C(C)C(N)=N3)c2)c1` (configuration not stated) gave a pKa in data set [1] of 6. Also, the logD in “physchem” came out at 2.5. In addition, in “in vitro”, the Papp A→B at 10 µM was 22 ×10⁻⁶ cm/s.

As to `COc1cccc(-c2cccc(C3(C4CCN(C(C)=O)CC4)N=C(C)C(N)=N3)c2)c1` (configuration not stated), the pKa in data set [1] was 5.7.

On to `CC#Cc1cncc(-c2cccc(C3(C4CC4)N=C(C)C(N)=N3)c2)c1` (configuration not stated), for which, in [1], the pKa came to 5.8. Also, in data set [2], the Kp uu at […] came to 0.07. Besides, the “Cp(f)” value in the data set with Plasma [3] was 310 nM. The concentration at […] is 980 nM in data set [4] and 3700 nM in data set [5]. Also, in “physchem”, the log distribution coefficient (logD) came to 2.3. In addition, the “Drug uptake(free)” value in the data set on Brain [6] worked out at 21 nmol/L. This compound came in with a Papp A→B at 10 µM in “in vitro” of 27 ×10⁻⁶ cm/s.
